Laboratory results taken from ChEMBL document CHEMBL4425158, “Synthesis, structure-activity relationships and biological evaluation of 4,5,6,7-tetrahydropyrazolopyrazines as metabotropic glutamate receptor 5 negative allosteric modulators” (Bioorg Med Chem Lett, 2016).
Values after ≈ are worked out from the molar mass of the structure shown. Active and inactive are the calls of the source. The calls are words filed in the database; no cut-off is given here.

Experiments:
[1] = target: Metabotropic glutamate receptor 5 (Homo sapiens, UniProt P41594); assay: Negative allosteric modulation of human recombinant mGluR5 expressed in HEK293 cells assessed as L-glutamate-induced intracellular calcium mobilization incubated for 20 mins before L-glutamate addition; type: functional, cell-based
[2] = Plasma concentration in ICR mouse at 30 mg/kg, po after 1 hr by LC/MS/MS analysis; type: ADME, organism-based
[3] = AUC(0 to infinity) in rat plasma at 10 mg/kg, po after 15 mins to 24 hrs; type: ADME, organism-based; set-up: dose 10 mg/kg, route oral, time infinity
[4] = Metabolic stability in rat liver microsomes assessed as compound remaining at 1 uM after 30 mins in presence of NADPH by LC/MS/MS analysis; type: ADME, Microsome; details: read-out: Stability
Cytochrome P450 2C8 = target: T1, Cytochrome P450 2C8 (Homo sapiens, UniProt P10632); assay: Inhibition of CYP2C8 in human liver microsomes using amodiaquin as substrate after 10 mins in presence of NADPH by LC/MS/MS analysis; type: ADME
T1 sequence (P10632 whole entry): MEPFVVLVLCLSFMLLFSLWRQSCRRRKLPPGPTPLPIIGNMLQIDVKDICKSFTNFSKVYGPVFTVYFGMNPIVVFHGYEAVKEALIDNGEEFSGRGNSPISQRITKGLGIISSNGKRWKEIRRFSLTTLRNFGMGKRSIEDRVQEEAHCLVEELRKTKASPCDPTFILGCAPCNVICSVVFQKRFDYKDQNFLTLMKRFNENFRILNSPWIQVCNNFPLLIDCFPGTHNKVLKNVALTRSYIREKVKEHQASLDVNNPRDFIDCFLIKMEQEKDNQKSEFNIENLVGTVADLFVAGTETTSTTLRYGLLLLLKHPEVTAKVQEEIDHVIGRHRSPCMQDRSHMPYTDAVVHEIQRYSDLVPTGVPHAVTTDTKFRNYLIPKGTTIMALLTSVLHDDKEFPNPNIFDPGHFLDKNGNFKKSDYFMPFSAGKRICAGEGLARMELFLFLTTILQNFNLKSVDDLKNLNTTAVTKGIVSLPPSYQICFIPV

[5] = target: Voltage-gated inwardly rectifying potassium channel KCNH2 (Homo sapiens, UniProt Q12809); assay: Inhibition of human ERG
[6] = Permeability of the compound at pH 7.4 by PAMPA; type: ADME; details: read-out: permeability
[7] = Unbound drug concentration in ICR mouse brain at 30 mg/kg, po after 1 hr by LC/MS/MS analysis; type: ADME, organism-based; details: in vivo
Cytochrome P450 1A2 = target: T2, Cytochrome P450 1A2 (Homo sapiens, UniProt P05177); assay: Inhibition of CYP1A2 in human liver microsomes using phenacetin as substrate after 10 mins in presence of NADPH by LC/MS/MS analysis; type: ADME
T2 sequence (P05177 whole entry): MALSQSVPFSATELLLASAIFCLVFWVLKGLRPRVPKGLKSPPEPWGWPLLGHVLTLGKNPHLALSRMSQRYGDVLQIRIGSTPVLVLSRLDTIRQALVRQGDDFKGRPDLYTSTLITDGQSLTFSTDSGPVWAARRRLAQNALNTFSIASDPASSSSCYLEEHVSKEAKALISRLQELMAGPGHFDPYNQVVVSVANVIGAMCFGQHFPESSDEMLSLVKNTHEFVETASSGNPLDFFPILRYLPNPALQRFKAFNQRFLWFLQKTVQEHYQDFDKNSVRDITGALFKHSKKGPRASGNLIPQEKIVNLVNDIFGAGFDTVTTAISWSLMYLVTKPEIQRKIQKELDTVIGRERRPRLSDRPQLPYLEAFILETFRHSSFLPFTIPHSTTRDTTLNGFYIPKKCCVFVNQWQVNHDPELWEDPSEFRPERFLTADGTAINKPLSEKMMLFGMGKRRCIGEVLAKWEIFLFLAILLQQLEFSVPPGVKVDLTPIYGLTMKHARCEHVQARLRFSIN

Cytochrome P450 3A4 = Cytochrome P450 3A4 (Homo sapiens, UniProt P08684); assay: Inhibition of CYP3A4 in human liver microsomes using midazolam as substrate after 10 mins in presence of NADPH by LC/MS/MS analysis; type: ADME
[8] = Half life in rat plasma at 1 mg/kg, iv after 5 mins to 24 hrs; type: ADME, organism-based
Cytochrome P450 2D6 = Cytochrome P450 2D6 (Homo sapiens, UniProt P10635); assay: Inhibition of CYP2D6 in human liver microsomes using bufuralol as substrate after 10 mins in presence of NADPH by LC/MS/MS analysis; type: ADME
Mus musculus = assay: Antidepressant activity in CD1(ICR) mouse assessed as decrease in immobility time at 30 mg/kg, po after 1 hr by tail suspension test; type: functional, organism-based
[9] = Protein binding in ICR mouse brain at 30 mg/kg, po after 1 hr by LC/MS/MS analysis; type: ADME, organism-based; details: read-out: PB (converted)
[10] = Aqueous solubility of the compound at pH 7.4; type: physicochemical
[11] = Volume of distribution in steady state in rat plasma at 1 mg/kg, iv after 5 mins to 24 hrs; type: ADME, organism-based; details: read-out: Vdss
[12] = target: T3, Nuclear receptor subfamily 1 group I member 2 (Homo sapiens, UniProt O75469); assay: Induction of human PXR assessed as CYP450 activation; type: ADME
T3 sequence (O75469 whole entry): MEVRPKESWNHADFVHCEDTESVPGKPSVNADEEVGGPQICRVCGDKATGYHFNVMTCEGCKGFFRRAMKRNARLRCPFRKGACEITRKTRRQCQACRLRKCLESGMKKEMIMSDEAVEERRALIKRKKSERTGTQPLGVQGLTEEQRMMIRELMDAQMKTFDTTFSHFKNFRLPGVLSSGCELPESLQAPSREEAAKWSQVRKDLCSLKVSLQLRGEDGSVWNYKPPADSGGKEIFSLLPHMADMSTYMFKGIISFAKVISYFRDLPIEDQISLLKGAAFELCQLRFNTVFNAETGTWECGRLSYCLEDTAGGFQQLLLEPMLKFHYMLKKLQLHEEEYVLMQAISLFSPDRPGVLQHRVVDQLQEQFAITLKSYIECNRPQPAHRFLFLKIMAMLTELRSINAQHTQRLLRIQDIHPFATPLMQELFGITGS

Cytochrome P450 2C19 = Cytochrome P450 2C19 (Homo sapiens, UniProt P33261); assay: Inhibition of CYP2C19 in human liver microsomes using (S)-mephenytoin as substrate after 10 mins in presence of NADPH by LC/MS/MS analysis; type: ADME
[13] = Drug uptake in ICR mouse brain at 30 mg/kg, po after 1 hr by LC/MS/MS analysis; type: ADME, organism-based; details: read-out: Drug uptake
P-gp (ABCB1) = P-gp (ABCB1) (Homo sapiens, UniProt P08183); assay: Substrate activity at P-gp (unknown origin) assessed as efflux ratio; type: ADME; details: not told
Cytochrome P450 2A6 = target: T4, Cytochrome P450 2A6 (Homo sapiens, UniProt P11509); assay: Inhibition of CYP2A6 in human liver microsomes using coumarin as substrate after 10 mins in presence of NADPH by LC/MS/MS analysis; type: ADME
T4 sequence (P11509 whole entry): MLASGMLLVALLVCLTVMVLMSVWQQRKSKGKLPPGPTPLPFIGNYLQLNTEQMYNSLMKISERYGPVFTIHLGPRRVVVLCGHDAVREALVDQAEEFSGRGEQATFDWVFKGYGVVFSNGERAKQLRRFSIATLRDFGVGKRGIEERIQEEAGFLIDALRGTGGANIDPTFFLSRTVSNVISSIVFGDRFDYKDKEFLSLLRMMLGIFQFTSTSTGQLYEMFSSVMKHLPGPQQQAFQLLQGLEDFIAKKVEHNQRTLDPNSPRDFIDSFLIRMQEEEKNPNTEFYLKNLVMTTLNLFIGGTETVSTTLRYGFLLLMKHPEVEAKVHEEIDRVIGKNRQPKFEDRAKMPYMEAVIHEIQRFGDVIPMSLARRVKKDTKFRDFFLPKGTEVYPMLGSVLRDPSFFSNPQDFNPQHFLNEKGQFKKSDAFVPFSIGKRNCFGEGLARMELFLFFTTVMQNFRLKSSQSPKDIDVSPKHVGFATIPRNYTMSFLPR

[14] = target: T5, Aryl hydrocarbon receptor (Homo sapiens, UniProt P35869); assay: Induction of human AhR assessed as CYP450 activation; type: ADME
T5 sequence (P35869 whole entry): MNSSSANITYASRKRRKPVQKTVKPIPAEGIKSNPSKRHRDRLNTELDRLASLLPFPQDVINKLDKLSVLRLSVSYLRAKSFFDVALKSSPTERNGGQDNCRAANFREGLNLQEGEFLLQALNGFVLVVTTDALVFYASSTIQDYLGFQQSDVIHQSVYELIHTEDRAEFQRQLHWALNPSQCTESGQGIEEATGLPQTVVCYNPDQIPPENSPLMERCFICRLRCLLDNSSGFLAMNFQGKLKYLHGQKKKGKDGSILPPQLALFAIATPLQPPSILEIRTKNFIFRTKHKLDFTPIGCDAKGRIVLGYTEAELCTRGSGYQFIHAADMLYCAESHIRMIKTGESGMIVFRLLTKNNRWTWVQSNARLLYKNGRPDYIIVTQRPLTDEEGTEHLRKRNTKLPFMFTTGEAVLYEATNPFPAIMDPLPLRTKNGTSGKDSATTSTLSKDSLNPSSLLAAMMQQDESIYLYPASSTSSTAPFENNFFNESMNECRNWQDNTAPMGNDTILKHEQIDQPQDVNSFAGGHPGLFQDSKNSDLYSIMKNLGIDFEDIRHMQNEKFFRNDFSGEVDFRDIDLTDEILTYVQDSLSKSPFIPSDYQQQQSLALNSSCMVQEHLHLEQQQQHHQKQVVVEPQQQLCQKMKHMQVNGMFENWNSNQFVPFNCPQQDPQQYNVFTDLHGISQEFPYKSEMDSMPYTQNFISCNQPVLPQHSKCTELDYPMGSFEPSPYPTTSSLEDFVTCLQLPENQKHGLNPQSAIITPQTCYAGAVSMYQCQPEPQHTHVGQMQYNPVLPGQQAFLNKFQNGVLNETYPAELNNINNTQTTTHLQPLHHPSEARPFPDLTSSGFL

[15] = Cmax in rat plasma at 10 mg/kg, po after 15 mins to 24 hrs; type: ADME, organism-based; set-up: dose 10 mg/kg, route oral
[16] = Ratio of drug level in brain to plasma in ICR mouse at 30 mg/kg, po after 1 hr by LC/MS/MS analysis; type: ADME, organism-based; details: read-out: BPR
[17] = Clearance in rat plasma at 1 mg/kg, iv after 5 mins to 24 hrs; type: ADME, organism-based
[18] = AUC(0 to infinity) in rat plasma at 1 mg/kg, iv after 5 mins to 24 hrs; type: ADME, organism-based; set-up: dose 1 mg/kg, route intravenous, time infinity
[19] = Oral bioavailability in rat plasma at 10 mg/kg, after 15 mins to 24 hrs; type: ADME, organism-based
[20] = Metabolic stability in human liver microsomes assessed as compound remaining at 1 uM after 30 mins in presence of NADPH by LC/MS/MS analysis; type: ADME, Microsome; details: read-out: Stability
[21] = Aqueous solubility of the compound at pH 1.2; type: physicochemical
Cytochrome P450 2C9 = Cytochrome P450 2C9 (Homo sapiens, UniProt P11712); assay: Inhibition of CYP2C9 in human liver microsomes using diclofenac as substrate after 10 mins in presence of NADPH by LC/MS/MS analysis; type: ADME
Sequence of Cytochrome P450 2C9 (P11712 whole entry): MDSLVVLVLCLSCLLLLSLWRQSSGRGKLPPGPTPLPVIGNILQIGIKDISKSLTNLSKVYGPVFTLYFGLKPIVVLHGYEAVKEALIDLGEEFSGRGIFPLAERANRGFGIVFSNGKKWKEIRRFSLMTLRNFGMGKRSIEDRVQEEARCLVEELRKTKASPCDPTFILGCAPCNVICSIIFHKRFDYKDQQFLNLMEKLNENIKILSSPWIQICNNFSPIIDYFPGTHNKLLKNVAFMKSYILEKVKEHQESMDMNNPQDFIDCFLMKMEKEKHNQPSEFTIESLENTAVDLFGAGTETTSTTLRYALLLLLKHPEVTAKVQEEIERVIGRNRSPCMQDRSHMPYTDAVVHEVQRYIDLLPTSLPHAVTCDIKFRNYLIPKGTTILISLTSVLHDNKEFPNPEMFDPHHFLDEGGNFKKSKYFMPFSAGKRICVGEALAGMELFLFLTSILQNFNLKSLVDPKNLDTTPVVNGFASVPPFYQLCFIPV

Sequence of Metabotropic glutamate receptor 5 (P41594 whole entry): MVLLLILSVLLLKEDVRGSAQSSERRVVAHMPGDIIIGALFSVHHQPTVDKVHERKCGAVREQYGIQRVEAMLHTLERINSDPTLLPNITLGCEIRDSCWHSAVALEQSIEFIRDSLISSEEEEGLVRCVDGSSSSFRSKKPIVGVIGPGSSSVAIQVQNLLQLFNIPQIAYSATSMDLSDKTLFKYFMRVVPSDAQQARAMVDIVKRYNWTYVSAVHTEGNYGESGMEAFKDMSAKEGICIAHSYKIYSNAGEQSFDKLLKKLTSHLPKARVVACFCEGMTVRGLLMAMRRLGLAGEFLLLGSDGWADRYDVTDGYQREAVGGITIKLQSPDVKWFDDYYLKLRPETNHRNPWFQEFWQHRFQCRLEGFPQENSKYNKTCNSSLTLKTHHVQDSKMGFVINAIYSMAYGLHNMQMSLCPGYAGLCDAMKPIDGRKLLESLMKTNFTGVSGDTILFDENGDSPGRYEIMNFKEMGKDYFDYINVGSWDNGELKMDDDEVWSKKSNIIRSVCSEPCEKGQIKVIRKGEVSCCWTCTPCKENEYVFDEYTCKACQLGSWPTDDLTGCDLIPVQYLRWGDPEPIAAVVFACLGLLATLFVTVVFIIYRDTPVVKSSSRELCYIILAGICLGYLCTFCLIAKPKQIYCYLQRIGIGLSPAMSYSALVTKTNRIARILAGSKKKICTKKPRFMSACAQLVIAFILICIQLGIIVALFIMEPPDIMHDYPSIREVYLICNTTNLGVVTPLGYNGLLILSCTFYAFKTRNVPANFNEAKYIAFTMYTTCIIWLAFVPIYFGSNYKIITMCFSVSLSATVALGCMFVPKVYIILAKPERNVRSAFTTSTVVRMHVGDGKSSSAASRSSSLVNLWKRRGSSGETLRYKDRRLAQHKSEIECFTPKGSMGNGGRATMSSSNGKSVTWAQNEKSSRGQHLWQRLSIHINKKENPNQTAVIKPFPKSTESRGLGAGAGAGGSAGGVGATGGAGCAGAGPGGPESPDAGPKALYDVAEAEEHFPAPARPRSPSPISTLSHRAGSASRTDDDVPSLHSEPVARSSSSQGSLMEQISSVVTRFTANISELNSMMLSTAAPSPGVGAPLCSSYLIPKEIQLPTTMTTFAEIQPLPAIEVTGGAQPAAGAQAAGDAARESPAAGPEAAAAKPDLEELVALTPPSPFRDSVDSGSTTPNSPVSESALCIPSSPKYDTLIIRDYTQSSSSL
Sequence of Voltage-gated inwardly rectifying potassium channel KCNH2 (Q12809 whole entry): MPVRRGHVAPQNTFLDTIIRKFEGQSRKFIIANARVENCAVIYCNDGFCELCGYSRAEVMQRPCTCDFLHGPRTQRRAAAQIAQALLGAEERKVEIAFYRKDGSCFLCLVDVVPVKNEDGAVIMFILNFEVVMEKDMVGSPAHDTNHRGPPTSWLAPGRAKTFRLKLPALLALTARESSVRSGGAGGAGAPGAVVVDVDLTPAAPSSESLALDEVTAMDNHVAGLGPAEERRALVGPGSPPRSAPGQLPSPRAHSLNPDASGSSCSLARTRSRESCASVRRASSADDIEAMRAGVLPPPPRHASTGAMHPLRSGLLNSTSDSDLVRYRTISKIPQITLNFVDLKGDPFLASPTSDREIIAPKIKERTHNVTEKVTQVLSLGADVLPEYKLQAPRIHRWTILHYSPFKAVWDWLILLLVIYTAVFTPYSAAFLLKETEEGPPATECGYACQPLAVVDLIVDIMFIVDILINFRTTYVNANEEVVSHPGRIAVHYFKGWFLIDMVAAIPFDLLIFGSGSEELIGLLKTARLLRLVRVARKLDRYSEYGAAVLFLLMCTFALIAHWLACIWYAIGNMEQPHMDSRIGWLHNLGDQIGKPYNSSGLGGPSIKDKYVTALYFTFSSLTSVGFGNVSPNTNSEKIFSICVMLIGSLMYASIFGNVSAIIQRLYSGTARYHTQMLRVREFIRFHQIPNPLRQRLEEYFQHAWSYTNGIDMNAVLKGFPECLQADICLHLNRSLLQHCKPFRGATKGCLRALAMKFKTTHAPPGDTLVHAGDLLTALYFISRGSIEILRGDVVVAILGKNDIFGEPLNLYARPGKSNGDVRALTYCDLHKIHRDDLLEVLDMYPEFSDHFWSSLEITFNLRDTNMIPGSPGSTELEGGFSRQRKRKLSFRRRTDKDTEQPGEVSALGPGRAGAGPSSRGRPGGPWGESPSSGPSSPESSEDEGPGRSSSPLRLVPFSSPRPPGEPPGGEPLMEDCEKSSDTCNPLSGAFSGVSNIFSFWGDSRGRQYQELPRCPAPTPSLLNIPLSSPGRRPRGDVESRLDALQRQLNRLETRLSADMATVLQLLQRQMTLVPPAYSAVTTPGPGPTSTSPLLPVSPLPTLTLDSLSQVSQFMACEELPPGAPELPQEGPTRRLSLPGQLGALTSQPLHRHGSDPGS
Sequence of Cytochrome P450 3A4 (P08684 whole entry): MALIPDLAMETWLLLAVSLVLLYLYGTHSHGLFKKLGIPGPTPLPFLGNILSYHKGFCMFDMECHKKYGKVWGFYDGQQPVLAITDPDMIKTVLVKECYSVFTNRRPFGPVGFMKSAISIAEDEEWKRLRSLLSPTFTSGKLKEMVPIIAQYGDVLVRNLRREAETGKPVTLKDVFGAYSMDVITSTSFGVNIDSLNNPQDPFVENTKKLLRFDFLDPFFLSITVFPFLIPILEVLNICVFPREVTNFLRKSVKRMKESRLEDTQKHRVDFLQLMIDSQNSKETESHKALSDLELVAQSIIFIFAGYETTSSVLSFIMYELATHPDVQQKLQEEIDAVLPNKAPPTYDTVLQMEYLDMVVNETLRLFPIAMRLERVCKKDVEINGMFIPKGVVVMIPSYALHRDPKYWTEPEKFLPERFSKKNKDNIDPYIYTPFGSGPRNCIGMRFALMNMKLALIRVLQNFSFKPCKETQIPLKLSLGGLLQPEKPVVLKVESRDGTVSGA
Sequence of Cytochrome P450 2C19 (P33261 whole entry): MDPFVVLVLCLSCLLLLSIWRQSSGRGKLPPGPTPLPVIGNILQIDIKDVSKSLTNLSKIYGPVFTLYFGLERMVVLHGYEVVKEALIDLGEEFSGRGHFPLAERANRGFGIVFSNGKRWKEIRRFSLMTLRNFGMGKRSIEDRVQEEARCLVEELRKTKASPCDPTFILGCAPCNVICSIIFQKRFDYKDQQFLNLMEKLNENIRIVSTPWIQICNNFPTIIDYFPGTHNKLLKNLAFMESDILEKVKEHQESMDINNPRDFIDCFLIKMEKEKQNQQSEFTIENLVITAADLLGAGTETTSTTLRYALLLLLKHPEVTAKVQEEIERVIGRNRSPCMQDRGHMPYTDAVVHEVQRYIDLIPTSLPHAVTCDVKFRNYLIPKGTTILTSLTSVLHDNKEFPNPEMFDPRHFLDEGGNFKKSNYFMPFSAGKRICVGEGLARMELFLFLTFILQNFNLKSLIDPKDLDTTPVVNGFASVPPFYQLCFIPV
Sequence of Cytochrome P450 2D6 (P10635 whole entry): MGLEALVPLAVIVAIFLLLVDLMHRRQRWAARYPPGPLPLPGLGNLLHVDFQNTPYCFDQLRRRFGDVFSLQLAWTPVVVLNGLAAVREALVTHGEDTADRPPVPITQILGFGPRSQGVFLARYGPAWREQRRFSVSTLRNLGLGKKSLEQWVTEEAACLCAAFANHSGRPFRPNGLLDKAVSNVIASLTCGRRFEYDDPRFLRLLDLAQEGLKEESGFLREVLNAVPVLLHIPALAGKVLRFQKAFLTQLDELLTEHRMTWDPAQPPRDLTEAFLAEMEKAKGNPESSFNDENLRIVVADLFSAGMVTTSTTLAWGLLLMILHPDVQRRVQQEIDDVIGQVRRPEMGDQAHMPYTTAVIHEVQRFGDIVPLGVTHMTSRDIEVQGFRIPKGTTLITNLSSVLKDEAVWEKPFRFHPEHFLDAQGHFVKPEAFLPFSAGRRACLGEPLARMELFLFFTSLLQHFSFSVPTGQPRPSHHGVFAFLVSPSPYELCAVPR

## O=C(c1cccc(C(F)(F)F)c1)N1CCn2nc(-c3ccc(F)cn3)cc2C1
[1]
  IC50: 0.383 µM

## O=C(c1ccccc1)N1CCn2nc(-c3ccc(Cl)cn3)cc2C1
[1]
  IC50: 0.201 µM

## O=C(c1cc(F)cc(Cl)c1)N1CCn2nc(-c3ccc(F)cn3)cc2C1
[2]
  concentration at 1 h: 21.4 µM
[3]
  AUC(0-inf): 68.7 µg·h/mL
[4]
  remaining at 0.5 h, 1 µM: > 97%
Cytochrome P450 2C8
  IC50: > 40 µM
[5]
  IC50: 15 µM
[6]
  Papp: 370 nm/s
[7]
  Drug uptake(free): 1.38 µM
Cytochrome P450 1A2
  IC50: > 40 µM
Cytochrome P450 3A4
  IC50: > 40 µM
[1]
  IC50: 0.075 µM
[8]
  half-life: 9.2 h
Cytochrome P450 2D6
  IC50: > 40 µM
Mus musculus
  Activity: Active
[9]
  fraction unbound at 1 h: 0.05
[10]
  solubility: 7 µg/mL (≈ 18.7 µM)
[11]
  Vd: 1.5 L/kg
[12]
  Activity: Not Active
Cytochrome P450 2C19
  IC50: > 40 µM
[13]
  concentration at 1 h: 29.5 µM
P-gp (ABCB1)
  efflux ratio: 1.2
Cytochrome P450 2A6
  IC50: > 40 µM
[14]
  Activity: Not Active
[15]
  Cmax: 2.93 µg/mL
[16]
  Kp at 1 h: 1.38
[17]
  clearance: 0.138 L/h/kg
[18]
  AUC(0-inf): 7.22 µg·h/mL
[19]
  bioavailability: 95%
[20]
  remaining at 0.5 h, 1 µM: > 97%
[21]
  solubility: 79 µg/mL (≈ 211 µM)
Cytochrome P450 2C9
  IC50: > 40 µM

## Cc1cccc(-c2cc3n(n2)CCN(C(=O)c2ccccc2)C3)n1
[1]
  IC50: 0.568 µM

## O=C(c1ccccc1)N1CCn2nc(-c3ccccc3)cc2C1
[1]
  IC50: 0.127 µM
[10]
  solubility: 2 µg/mL (≈ 6.59 µM)
[21]
  solubility: 4 µg/mL (≈ 13.2 µM)

## CC(C)(C)c1cc2n(n1)CCN(C(=O)c1ccc3ccccc3c1)C2
[1]
  IC50: 0.477 µM

## Cc1cccnc1-c1cc2n(n1)CCN(C(=O)c1ccccc1)C2
[1]
  IC50: > 10 µM

## O=C(c1cccc(F)c1)N1CCn2nc(-c3ccc(F)cn3)cc2C1
[1]
  IC50: 0.257 µM

## Cc1ccnc(-c2cc3n(n2)CCN(C(=O)c2ccccc2)C3)c1
[1]
  IC50: 0.451 µM

## O=C(c1ccc(Cl)cc1)N1CCn2nc(-c3ccccn3)cc2C1
[1]
  IC50: 9.47 µM

## O=C(c1cccc(Cl)c1)N1CCn2nc(-c3ccc(F)cn3)cc2C1
[1]
  IC50: 0.15 µM

## O=C(c1ccccc1Cl)N1CCn2nc(-c3ccccn3)cc2C1
[1]
  IC50: 2.48 µM
